{
  "source": "patent US12357598B2",
  "about": "“Treatment of neurodevelopmental disorders” (THE REGENTS OF THE UNIVERSITY OF CALIFORNIA, priority 2018, dated 2025)",
  "target": "T1, sEH (Homo sapiens, UniProt P34913)",
  "T1 sequence (P34913 1-555)": "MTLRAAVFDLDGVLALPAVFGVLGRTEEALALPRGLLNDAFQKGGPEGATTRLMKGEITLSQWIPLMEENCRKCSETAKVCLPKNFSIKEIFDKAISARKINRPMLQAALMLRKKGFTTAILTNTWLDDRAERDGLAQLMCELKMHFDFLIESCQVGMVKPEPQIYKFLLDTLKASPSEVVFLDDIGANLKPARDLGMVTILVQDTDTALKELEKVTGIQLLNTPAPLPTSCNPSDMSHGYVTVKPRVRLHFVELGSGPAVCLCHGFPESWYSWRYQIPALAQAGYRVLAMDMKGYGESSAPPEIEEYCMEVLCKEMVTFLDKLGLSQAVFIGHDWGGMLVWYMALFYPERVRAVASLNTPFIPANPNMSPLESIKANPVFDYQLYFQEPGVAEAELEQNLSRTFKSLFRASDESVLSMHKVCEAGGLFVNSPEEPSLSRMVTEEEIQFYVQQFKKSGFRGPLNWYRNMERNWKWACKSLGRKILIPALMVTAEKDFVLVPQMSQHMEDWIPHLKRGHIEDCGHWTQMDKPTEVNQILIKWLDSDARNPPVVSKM",
  "assay": "Testing of ureas and lipid alkoxides as sEH inhibitors",
  "type": "biochemical",
  "from_the_text": "(Both the 1- and the 2-adamantyl ureas have been tested and have about the same high activity as an inhibitor of sEH. Thus, isomers of adamantyl dodecyl urea are preferred inhibitors. It is further expected that N, N′-dodecyl-cyclohexyl urea (DCU), and other inhibitors of sEH, and particularly dodecanoic acid ester derivatives of urea, are suitable for use in the methods. Preferred inhibitors include without limitation:\nU.S. Pat. No. 5,955,496 (the '496 patent) also sets forth a number of sEH inhibitors which can be used in the methods. One category of these inhibitors comprises inhibitors that mimic the substrate for the enzyme. The lipid alkoxides (e.g., the 9-methoxide of stearic acid) are an exemplar of this group of inhibitors.",
  "data": [
    {"compound": "CCCCCCCCCCCCNC(=O)NC12CC3CC(CC(C3)C1)C2", "note": "[ADU, N-Adamantyl-N′-dodecyl urea]", "values": [
      {"measurement": "activity as an inhibitor of sEH", "result": "particularly high activity"}
    ]}
  ]
}
